The kinase profiling compilation of Christmann-Franck et al. (2016)

Molecular target: PRKCB2 (human) (UniProt P05771)
Test: radiometric filter-binding kinase assay, Kinase HotSpot
Settings: compound 0.5 µM; ATP 10 µM

| Compound | residual activity |
| --- | --- |
| COc1cc2c(N3CCN(C(=O)Nc4ccc(OC(C)C)cc4)CC3)ncnc2cc1OCCCN1CCCCC1 | 93.1% |
| O=c1[nH]c2ccccc2n1C1CCN(Cc2ccc(-c3nc4cc5[nH]cnc5cc4nc3-c3ccccc3)cc2)CC1 | 105% |
| O=c1c(-c2ccc(F)cc2)c(-c2ccncc2)[nH]n1-c1ccc(Cl)cc1 | 92.4% |

Molecular target: NEK11 (human) (UniProt Q8NG66)
Sequence (Q8NG66 whole entry, looked up): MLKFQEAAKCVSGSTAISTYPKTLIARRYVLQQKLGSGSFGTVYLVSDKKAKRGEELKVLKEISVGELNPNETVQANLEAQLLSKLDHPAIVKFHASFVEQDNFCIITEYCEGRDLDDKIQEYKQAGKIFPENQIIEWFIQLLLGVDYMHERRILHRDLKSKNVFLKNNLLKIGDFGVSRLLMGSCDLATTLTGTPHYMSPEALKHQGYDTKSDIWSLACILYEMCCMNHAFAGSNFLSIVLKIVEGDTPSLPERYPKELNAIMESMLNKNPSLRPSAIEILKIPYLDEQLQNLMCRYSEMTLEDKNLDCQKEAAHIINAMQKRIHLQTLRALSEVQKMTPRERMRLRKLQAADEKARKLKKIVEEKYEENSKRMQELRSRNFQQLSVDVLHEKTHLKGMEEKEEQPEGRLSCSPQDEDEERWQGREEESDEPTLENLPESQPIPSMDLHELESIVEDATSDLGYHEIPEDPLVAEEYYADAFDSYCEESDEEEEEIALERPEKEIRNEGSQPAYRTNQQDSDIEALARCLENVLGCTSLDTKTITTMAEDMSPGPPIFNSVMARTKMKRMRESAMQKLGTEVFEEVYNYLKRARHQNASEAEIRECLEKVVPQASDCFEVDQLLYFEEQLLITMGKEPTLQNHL
Test: as above
Settings: compound 0.5 µM; ATP 10 µM

| Compound | residual activity |
| --- | --- |
| N#Cc1c(NC(=O)c2cccc3ccccc23)sc2c1CCCC2 | 105% |
| COc1cc2c(N3CCN(C(=O)Nc4ccc(OC(C)C)cc4)CC3)ncnc2cc1OCCCN1CCCCC1 | 92.5% |
| O=c1[nH]c2ccccc2n1C1CCN(Cc2ccc(-c3nc4cc5[nH]cnc5cc4nc3-c3ccccc3)cc2)CC1 | 86.4% |
| O=c1c(-c2ccc(F)cc2)c(-c2ccncc2)[nH]n1-c1ccc(Cl)cc1 | 104% |

Molecular target: DYRK2 (human) (UniProt Q92630)
Test: as above
Settings: compound 0.5 µM; ATP 10 µM

| Compound | residual activity |
| --- | --- |
| N#Cc1c(NC(=O)c2cccc3ccccc23)sc2c1CCCC2 | 119% |
| COc1cc2c(N3CCN(C(=O)Nc4ccc(OC(C)C)cc4)CC3)ncnc2cc1OCCCN1CCCCC1 | 107% |
| O=c1[nH]c2ccccc2n1C1CCN(Cc2ccc(-c3nc4cc5[nH]cnc5cc4nc3-c3ccccc3)cc2)CC1 | 107% |
| O=c1c(-c2ccc(F)cc2)c(-c2ccncc2)[nH]n1-c1ccc(Cl)cc1 | 86.9% |

Molecular target: MARK2 (human) (UniProt Q7KZI7)
Sequence (Q7KZI7 whole entry, looked up): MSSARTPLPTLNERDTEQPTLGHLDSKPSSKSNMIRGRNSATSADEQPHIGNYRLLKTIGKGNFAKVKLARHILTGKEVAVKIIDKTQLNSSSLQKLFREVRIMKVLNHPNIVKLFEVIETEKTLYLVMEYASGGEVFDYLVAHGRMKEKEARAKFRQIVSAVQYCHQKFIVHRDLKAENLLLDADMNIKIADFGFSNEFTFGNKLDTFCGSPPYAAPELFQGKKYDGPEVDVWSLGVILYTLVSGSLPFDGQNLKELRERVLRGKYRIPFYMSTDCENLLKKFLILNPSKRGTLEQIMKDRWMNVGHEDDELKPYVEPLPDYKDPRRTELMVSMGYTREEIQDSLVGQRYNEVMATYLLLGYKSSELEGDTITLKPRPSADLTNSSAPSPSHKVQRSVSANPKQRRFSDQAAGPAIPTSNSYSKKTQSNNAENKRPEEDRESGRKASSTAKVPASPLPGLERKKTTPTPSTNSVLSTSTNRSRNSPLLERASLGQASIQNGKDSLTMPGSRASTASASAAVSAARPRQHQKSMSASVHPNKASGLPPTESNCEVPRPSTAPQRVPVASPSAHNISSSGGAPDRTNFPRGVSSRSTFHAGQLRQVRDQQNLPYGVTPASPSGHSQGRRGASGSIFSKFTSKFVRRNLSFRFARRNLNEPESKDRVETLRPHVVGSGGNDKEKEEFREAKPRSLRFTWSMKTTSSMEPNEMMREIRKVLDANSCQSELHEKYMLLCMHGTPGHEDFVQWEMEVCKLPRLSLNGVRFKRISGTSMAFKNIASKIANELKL
Test: as above
Settings: compound 0.5 µM; ATP 10 µM

| Compound | residual activity |
| --- | --- |
| N#Cc1c(NC(=O)c2cccc3ccccc23)sc2c1CCCC2 | 105% |
| COc1cc2c(N3CCN(C(=O)Nc4ccc(OC(C)C)cc4)CC3)ncnc2cc1OCCCN1CCCCC1 | 109% |
| O=c1[nH]c2ccccc2n1C1CCN(Cc2ccc(-c3nc4cc5[nH]cnc5cc4nc3-c3ccccc3)cc2)CC1 | 92.2% |
| O=c1c(-c2ccc(F)cc2)c(-c2ccncc2)[nH]n1-c1ccc(Cl)cc1 | 88.8% |

Molecular target: ULK2 (human) (UniProt Q8IYT8)
Test: as above
Settings: compound 0.5 µM; ATP 10 µM

| Compound | residual activity |
| --- | --- |
| N#Cc1c(NC(=O)c2cccc3ccccc23)sc2c1CCCC2 | 112% |
| COc1cc2c(N3CCN(C(=O)Nc4ccc(OC(C)C)cc4)CC3)ncnc2cc1OCCCN1CCCCC1 | 100% |

Molecular target: PAK3 (human) (UniProt O75914)
Sequence (O75914 whole entry, looked up): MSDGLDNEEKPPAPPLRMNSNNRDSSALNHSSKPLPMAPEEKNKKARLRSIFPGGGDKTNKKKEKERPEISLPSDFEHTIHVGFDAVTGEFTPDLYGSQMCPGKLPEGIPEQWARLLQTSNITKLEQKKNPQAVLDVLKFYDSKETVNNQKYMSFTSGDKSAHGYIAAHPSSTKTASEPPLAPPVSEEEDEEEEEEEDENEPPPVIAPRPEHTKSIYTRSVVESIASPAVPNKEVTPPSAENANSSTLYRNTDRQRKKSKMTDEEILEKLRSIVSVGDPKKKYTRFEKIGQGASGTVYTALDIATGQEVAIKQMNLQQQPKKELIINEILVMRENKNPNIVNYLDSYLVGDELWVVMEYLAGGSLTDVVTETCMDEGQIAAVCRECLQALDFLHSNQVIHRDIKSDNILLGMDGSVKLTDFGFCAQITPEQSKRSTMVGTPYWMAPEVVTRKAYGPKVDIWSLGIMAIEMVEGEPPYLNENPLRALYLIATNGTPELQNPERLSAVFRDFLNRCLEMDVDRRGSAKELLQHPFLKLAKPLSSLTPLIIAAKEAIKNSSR
Test: as above
Settings: compound 0.5 µM; ATP 10 µM

| Compound | residual activity |
| --- | --- |
| N#Cc1c(NC(=O)c2cccc3ccccc23)sc2c1CCCC2 | 105% |
| COc1cc2c(N3CCN(C(=O)Nc4ccc(OC(C)C)cc4)CC3)ncnc2cc1OCCCN1CCCCC1 | 105% |
| O=c1[nH]c2ccccc2n1C1CCN(Cc2ccc(-c3nc4cc5[nH]cnc5cc4nc3-c3ccccc3)cc2)CC1 | 104% |
| O=c1c(-c2ccc(F)cc2)c(-c2ccncc2)[nH]n1-c1ccc(Cl)cc1 | 98.3% |

Molecular target: CHUK (human) (UniProt O15111)
Sequence (O15111 whole entry, looked up): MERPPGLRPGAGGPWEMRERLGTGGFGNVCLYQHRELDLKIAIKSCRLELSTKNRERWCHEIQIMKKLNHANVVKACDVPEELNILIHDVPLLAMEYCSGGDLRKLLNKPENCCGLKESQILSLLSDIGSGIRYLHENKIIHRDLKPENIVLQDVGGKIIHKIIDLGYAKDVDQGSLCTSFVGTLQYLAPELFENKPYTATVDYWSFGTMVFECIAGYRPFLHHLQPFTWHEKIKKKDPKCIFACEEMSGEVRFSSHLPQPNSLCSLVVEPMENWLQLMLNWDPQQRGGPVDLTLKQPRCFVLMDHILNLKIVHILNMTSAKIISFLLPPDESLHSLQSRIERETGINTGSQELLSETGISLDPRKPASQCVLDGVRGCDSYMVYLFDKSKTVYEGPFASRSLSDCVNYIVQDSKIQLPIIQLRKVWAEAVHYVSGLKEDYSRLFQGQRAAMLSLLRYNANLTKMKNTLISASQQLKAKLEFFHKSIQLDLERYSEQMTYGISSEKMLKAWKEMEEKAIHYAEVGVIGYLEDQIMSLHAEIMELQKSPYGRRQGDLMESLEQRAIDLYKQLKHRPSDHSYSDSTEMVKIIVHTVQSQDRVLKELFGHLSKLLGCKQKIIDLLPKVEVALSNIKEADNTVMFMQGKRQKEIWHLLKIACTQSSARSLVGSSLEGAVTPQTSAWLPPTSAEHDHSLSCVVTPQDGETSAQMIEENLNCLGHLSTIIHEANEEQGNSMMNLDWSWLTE
Test: as above
Settings: compound 0.5 µM; ATP 10 µM

| Compound | residual activity |
| --- | --- |
| N#Cc1c(NC(=O)c2cccc3ccccc23)sc2c1CCCC2 | 99.6% |
| COc1cc2c(N3CCN(C(=O)Nc4ccc(OC(C)C)cc4)CC3)ncnc2cc1OCCCN1CCCCC1 | 98.3% |
| O=c1[nH]c2ccccc2n1C1CCN(Cc2ccc(-c3nc4cc5[nH]cnc5cc4nc3-c3ccccc3)cc2)CC1 | 90.1% |
| O=c1c(-c2ccc(F)cc2)c(-c2ccncc2)[nH]n1-c1ccc(Cl)cc1 | 101% |

Molecular target: RPS6KB1 (human) (UniProt P23443)
Sequence (P23443 whole entry, looked up): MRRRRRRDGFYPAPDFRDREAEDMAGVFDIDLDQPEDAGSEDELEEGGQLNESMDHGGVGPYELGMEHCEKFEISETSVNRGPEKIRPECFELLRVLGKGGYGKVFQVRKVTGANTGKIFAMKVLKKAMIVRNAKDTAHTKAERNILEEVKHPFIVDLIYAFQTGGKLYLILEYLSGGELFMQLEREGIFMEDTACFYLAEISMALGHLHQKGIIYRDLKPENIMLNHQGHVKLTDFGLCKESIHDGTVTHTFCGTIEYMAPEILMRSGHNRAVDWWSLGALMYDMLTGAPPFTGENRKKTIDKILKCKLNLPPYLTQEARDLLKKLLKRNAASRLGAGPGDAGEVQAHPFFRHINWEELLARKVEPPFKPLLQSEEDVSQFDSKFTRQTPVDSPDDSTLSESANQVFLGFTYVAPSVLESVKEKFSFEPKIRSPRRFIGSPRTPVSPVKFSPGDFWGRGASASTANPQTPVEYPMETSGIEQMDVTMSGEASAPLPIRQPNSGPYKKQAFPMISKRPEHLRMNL
Test: as above
Settings: compound 0.5 µM; ATP 10 µM

| Compound | residual activity |
| --- | --- |
| N#Cc1c(NC(=O)c2cccc3ccccc23)sc2c1CCCC2 | 105% |
| COc1cc2c(N3CCN(C(=O)Nc4ccc(OC(C)C)cc4)CC3)ncnc2cc1OCCCN1CCCCC1 | 107% |
| O=c1[nH]c2ccccc2n1C1CCN(Cc2ccc(-c3nc4cc5[nH]cnc5cc4nc3-c3ccccc3)cc2)CC1 | 101% |
| O=c1c(-c2ccc(F)cc2)c(-c2ccncc2)[nH]n1-c1ccc(Cl)cc1 | 89.9% |

Molecular target: MET (human) (UniProt P08581)
Test: as above
Settings: compound 0.5 µM; ATP 10 µM

| Compound | residual activity |
| --- | --- |
| N#Cc1c(NC(=O)c2cccc3ccccc23)sc2c1CCCC2 | 109% |
| CN[C@@H]1C[C@H]2O[C@@](C)([C@@H]1OC)n1c3ccccc3c3c4c(c5c6ccccc6n2c5c31)C(=O)NC4 | 32.7% |
| COc1cc2c(N3CCN(C(=O)Nc4ccc(OC(C)C)cc4)CC3)ncnc2cc1OCCCN1CCCCC1 | 92.5% |
| O=c1[nH]c2ccccc2n1C1CCN(Cc2ccc(-c3nc4cc5[nH]cnc5cc4nc3-c3ccccc3)cc2)CC1 | 102% |
| O=c1c(-c2ccc(F)cc2)c(-c2ccncc2)[nH]n1-c1ccc(Cl)cc1 | 101% |

Molecular target: DDR2 (human) (UniProt Q16832)
Sequence (Q16832 whole entry, looked up): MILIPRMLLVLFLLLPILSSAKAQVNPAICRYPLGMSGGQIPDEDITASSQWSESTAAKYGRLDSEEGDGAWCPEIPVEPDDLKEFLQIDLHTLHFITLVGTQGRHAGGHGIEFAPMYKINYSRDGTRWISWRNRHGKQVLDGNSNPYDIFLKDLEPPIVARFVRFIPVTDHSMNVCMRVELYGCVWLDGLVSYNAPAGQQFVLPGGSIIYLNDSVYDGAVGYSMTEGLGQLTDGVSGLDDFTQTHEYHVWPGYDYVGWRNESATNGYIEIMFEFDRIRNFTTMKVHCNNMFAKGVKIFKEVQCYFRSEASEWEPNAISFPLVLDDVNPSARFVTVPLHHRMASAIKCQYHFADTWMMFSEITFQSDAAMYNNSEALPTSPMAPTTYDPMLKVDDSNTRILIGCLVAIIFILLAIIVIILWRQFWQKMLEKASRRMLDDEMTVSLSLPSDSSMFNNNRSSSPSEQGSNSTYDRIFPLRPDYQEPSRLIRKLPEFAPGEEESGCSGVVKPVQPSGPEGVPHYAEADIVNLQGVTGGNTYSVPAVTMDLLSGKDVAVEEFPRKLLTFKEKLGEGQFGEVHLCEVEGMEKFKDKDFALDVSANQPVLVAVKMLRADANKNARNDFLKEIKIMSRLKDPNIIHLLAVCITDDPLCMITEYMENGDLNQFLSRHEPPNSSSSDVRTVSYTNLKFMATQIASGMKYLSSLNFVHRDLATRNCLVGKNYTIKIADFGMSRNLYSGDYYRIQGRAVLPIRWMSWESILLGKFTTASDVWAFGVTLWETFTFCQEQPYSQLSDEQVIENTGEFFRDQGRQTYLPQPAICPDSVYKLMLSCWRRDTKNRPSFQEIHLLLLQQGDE
Test: as above
Settings: compound 0.5 µM; ATP 10 µM

| Compound | residual activity |
| --- | --- |
| N#Cc1c(NC(=O)c2cccc3ccccc23)sc2c1CCCC2 | 95.8% |
| COc1cc2c(N3CCN(C(=O)Nc4ccc(OC(C)C)cc4)CC3)ncnc2cc1OCCCN1CCCCC1 | 102% |
| O=c1[nH]c2ccccc2n1C1CCN(Cc2ccc(-c3nc4cc5[nH]cnc5cc4nc3-c3ccccc3)cc2)CC1 | 99.2% |
| O=c1c(-c2ccc(F)cc2)c(-c2ccncc2)[nH]n1-c1ccc(Cl)cc1 | 90.6% |

Molecular target: NLK (human) (UniProt Q9UBE8)
Sequence (Q9UBE8 whole entry, looked up): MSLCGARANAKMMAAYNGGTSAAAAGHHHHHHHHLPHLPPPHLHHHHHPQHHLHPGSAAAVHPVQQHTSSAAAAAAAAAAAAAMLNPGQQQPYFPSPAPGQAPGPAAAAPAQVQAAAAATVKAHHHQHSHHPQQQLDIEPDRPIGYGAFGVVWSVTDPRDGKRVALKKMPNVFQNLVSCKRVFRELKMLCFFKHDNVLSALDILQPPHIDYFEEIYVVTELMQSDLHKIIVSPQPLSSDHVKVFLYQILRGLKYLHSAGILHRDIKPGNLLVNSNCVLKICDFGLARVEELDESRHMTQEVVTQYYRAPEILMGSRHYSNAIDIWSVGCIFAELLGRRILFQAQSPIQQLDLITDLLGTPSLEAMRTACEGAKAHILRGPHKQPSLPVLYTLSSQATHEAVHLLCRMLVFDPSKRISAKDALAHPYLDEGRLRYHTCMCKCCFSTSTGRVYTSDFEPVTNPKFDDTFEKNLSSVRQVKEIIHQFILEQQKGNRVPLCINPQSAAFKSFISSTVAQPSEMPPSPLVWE
Test: as above
Settings: compound 0.5 µM; ATP 10 µM

| Compound | residual activity |
| --- | --- |
| N#Cc1c(NC(=O)c2cccc3ccccc23)sc2c1CCCC2 | 99.4% |
| COc1cc2c(N3CCN(C(=O)Nc4ccc(OC(C)C)cc4)CC3)ncnc2cc1OCCCN1CCCCC1 | 105% |
| O=c1[nH]c2ccccc2n1C1CCN(Cc2ccc(-c3nc4cc5[nH]cnc5cc4nc3-c3ccccc3)cc2)CC1 | 104% |
| O=c1c(-c2ccc(F)cc2)c(-c2ccncc2)[nH]n1-c1ccc(Cl)cc1 | 16% |
